# Data from patent publication US9446039B2, “Aminoheteroaryl compounds as MTH1 inhibitors” (CEMM—FORSCHUNGSZENTRUM FÜR MOLEKULARE MEDIZIN GMBH, priority 2012, dated 2016).
# Tests used:
# Type in all cases: binding
# [1] = target: SW480 colon carcinoma cells lysate proteins (Homo sapiens, UniProt P38646); settings: PreyGene HSPA9
# [2] = target: T1, SW480 colon carcinoma cells lysate proteins (Homo sapiens, UniProt P00492); settings: PreyGene HPRT1
# T1 sequence (P00492 1-218): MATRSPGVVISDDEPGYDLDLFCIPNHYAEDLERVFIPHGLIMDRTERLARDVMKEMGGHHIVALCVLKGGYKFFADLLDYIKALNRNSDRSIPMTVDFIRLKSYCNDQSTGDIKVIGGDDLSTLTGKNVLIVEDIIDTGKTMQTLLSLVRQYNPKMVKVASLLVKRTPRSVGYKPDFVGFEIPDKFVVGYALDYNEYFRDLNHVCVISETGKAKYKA
# [3] = target: SW480 colon carcinoma cells lysate proteins (Homo sapiens, UniProt P39687); settings: PreyGene ANP32A
# [4] = target: SW480 colon carcinoma cells lysate proteins (Homo sapiens, UniProt Q14204); settings: PreyGene DYNC1H1
# [5] = target: T2, SW480 colon carcinoma cells lysate proteins (Homo sapiens, UniProt P08758); settings: PreyGene ANXA5
# T2 sequence (P08758 1-320): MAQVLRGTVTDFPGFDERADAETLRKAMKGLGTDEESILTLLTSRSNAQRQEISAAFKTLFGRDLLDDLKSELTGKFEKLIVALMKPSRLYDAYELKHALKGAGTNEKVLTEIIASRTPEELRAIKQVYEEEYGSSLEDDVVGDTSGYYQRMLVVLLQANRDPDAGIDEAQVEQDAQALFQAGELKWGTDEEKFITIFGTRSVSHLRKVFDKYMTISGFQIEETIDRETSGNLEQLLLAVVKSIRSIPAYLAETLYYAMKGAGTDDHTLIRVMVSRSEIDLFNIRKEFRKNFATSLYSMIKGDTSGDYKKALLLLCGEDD
# [6] = target: SW480 colon carcinoma cells lysate proteins (Homo sapiens, UniProt P10412); settings: PreyGene HIST1H1E
# [7] = target: SW480 colon carcinoma cells lysate proteins (Homo sapiens, UniProt P06744); settings: PreyGene GPI
# [8] = target: SW480 colon carcinoma cells lysate proteins (Homo sapiens, UniProt P68366); settings: PreyGene TUBA4A; SW480 cells
# [9] = target: T3, SW480 colon carcinoma cells lysate proteins (Homo sapiens, UniProt Q8NC51); settings: PreyGene SERBP1; SW480 cells
# T3 sequence (Q8NC51 1-408): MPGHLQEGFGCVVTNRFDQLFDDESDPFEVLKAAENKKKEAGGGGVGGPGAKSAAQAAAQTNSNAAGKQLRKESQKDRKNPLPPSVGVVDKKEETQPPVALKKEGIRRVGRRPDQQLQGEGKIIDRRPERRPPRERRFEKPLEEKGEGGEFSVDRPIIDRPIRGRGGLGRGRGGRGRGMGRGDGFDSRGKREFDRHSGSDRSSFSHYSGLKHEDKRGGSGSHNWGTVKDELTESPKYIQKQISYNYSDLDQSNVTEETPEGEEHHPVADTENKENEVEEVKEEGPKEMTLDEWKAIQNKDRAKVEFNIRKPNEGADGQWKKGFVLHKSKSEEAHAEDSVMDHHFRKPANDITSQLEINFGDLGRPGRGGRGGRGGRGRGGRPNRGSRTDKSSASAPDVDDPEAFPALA
# [10] = target: SW480 colon carcinoma cells lysate proteins (Homo sapiens, UniProt Q15056); settings: PreyGene EIF4H
# [11] = target: SW480 colon carcinoma cells lysate proteins (Homo sapiens, UniProt P23284); settings: PreyGene PPIB
# [12] = target: SW480 colon carcinoma cells lysate proteins (Homo sapiens, UniProt P07858); settings: PreyGene CTSB
# [13] = target: SW480 colon carcinoma cells lysate proteins (Homo sapiens, UniProt Q9BZK3); settings: PreyGene NACAP1; SW480 cells
# Sequence of SW480 colon carcinoma cells lysate proteins (Homo sapiens, UniProt P38646) (P38646 47-679): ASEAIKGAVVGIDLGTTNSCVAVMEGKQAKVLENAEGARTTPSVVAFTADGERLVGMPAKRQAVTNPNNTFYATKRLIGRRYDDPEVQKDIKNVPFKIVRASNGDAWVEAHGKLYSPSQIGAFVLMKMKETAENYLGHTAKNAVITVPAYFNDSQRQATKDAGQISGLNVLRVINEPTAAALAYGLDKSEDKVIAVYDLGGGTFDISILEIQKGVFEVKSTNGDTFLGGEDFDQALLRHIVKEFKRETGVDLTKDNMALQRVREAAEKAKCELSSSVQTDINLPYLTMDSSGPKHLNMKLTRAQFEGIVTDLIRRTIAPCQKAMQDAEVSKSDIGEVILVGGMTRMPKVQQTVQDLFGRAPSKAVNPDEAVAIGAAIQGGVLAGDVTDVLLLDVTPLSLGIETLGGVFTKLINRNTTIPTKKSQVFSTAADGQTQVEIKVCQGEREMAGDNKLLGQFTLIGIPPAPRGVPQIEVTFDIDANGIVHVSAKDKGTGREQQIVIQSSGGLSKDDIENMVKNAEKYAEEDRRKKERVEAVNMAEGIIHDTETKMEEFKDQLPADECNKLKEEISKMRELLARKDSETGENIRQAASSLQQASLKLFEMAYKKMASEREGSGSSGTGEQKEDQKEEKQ
# Sequence of SW480 colon carcinoma cells lysate proteins (Homo sapiens, UniProt P23284) (P23284 34-216): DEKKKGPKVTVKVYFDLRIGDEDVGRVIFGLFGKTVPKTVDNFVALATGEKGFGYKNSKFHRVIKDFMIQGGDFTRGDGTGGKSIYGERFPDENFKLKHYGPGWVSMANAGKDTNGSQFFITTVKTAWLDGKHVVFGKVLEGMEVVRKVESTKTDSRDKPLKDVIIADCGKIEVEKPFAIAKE
# Sequence of SW480 colon carcinoma cells lysate proteins (Homo sapiens, UniProt P39687) (P39687 whole entry): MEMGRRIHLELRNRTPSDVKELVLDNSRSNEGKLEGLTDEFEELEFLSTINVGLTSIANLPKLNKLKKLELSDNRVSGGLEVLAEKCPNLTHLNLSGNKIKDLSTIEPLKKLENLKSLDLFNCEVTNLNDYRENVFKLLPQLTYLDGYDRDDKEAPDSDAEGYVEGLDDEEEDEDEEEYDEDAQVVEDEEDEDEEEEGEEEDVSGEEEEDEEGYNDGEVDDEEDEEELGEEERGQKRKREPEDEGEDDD
# Sequence of SW480 colon carcinoma cells lysate proteins (Homo sapiens, UniProt P68366) (P68366 whole entry): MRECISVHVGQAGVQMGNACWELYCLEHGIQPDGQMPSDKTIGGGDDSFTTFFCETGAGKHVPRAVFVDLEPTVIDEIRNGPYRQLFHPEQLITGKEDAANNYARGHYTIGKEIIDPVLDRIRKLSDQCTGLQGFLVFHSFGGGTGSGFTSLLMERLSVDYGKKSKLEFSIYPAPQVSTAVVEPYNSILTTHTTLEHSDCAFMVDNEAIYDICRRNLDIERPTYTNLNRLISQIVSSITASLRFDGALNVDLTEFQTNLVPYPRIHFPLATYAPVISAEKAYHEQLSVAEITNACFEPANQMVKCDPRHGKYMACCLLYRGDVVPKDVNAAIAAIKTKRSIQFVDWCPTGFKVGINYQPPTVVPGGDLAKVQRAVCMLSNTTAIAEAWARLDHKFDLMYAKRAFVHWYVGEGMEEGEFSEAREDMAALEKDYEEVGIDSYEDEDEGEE
# Sequence of SW480 colon carcinoma cells lysate proteins (Homo sapiens, UniProt P10412) (P10412 whole entry): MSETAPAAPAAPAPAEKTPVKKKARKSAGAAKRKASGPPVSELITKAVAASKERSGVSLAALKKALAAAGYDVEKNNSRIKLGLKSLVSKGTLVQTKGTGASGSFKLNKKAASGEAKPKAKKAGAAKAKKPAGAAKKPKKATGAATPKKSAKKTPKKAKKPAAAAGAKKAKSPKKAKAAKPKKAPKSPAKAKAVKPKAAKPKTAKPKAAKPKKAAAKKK
structure (smiles),measurement,setting,value
C[C@H](Oc1cc(-c2cnn(C3CCNCC3)c2)cnc1N)c1c(Cl)ccc(F)c1Cl [(5)-crizotinib],AvgP,[1],0.3567
same,SC.Exp. 1-1,[1],2
same,SC.Exp. 1-2,[1],3
same,SC.Exp. 2-1,[1],0
same,SC.Exp. 2-2,[1],0
same,Sum (SC.Exp.),[1],5
same,AvgP,[2],0.1891
same,SC.Exp. 1-1,[2],2
same,SC.Exp. 1-2,[2],0
same,SC.Exp. 2-1,[2],0
same,SC.Exp. 2-2,[2],0
same,Sum (SC.Exp.),[2],2
same,AvgP,[3],0.5951
same,SC.Exp. 1-1,[3],1
same,SC.Exp. 1-2,[3],1
same,SC.Exp. 2-1,[3],1
same,SC.Exp. 2-2,[3],3
same,Sum (SC.Exp.),[3],6
same,AvgP,[4],0.2458
same,SC.Exp. 1-1,[4],13
same,SC.Exp. 1-2,[4],13
same,SC.Exp. 2-1,[4],2
same,SC.Exp. 2-2,[4],2
same,Sum (SC.Exp.),[4],30
same,AvgP,[5],0.4332
same,SC.Exp. 1-1,[5],9
same,SC.Exp. 1-2,[5],6
same,SC.Exp. 2-1,[5],0
same,SC.Exp. 2-2,[5],0
same,Sum (SC.Exp.),[5],15
same,AvgP,[6],0.2298
same,SC.Exp. 1-1,[6],0
same,SC.Exp. 1-2,[6],2
same,SC.Exp. 2-1,[6],0
same,SC.Exp. 2-2,[6],2
same,Sum (SC.Exp.),[6],4
same,AvgP,[7],0.3986
same,SC.Exp. 1-1,[7],4
same,SC.Exp. 1-2,[7],5
same,SC.Exp. 2-1,[7],0
same,SC.Exp. 2-2,[7],0
same,Sum (SC.Exp.),[7],9
same,AvgP,[8],0
same,SC.Exp. 1-1,[8],22
same,SC.Exp. 1-2,[8],20
same,SC.Exp. 2-1,[8],14
same,SC.Exp. 2-2,[8],12
same,SC.Exp. Sum,[8],68
same,AvgP,[9],0
same,SC.Exp. 1-1,[9],8
same,SC.Exp. 1-2,[9],10
same,SC.Exp. 2-1,[9],5
same,SC.Exp. 2-2,[9],6
same,SC.Exp. Sum,[9],29
same,AvgP,[10],0.4095
same,SC.Exp. 1-1,[10],3
same,SC.Exp. 1-2,[10],2
same,SC.Exp. 2-1,[10],0
same,SC.Exp. 2-2,[10],0
same,Sum (SC.Exp.),[10],5
same,AvgP,[11],0.381
same,SC.Exp. 1-1,[11],2
same,SC.Exp. 1-2,[11],2
same,SC.Exp. 2-1,[11],0
same,SC.Exp. 2-2,[11],0
same,Sum (SC.Exp.),[11],4
same,AvgP,[12],0.1845
same,SC.Exp. 1-1,[12],0
same,SC.Exp. 1-2,[12],2
same,SC.Exp. 2-1,[12],0
same,SC.Exp. 2-2,[12],0
same,Sum (SC.Exp.),[12],2
same,AvgP,[13],0
same,SC.Exp. 1-1,[13],0
same,SC.Exp. 1-2,[13],0
same,SC.Exp. 2-1,[13],1
same,SC.Exp. 2-2,[13],0
same,SC.Exp. Sum,[13],1
